As a reminder, the Ki is a measure of affinity in units of concentration, obtained from inhibition or displacement. A lower Ki goes with tighter binding. Usually IC50 stands for the concentration needed to halve the response being measured.

The values below come from PubChem BioAssay AID520 (NMMLSC, 2006).

The test has as its target N-formyl peptide receptor 2 (Homo sapiens) (UniProt P25090). As to the kind of experiment: concentration-dependent FPRL1 ligand displacement – cell-based, FPR counter-screen, fluorescent ligand, dose response (AID 520). The note with it: FPRL1-expressing cells, fluorescent ligand binding inhibition; for Ki: measured here: FPRL1 binding Ki.

The structures appear in SMILES notation. Activity calls are given as the source filed them. How the calls were made is not given here.

Chain of N-formyl peptide receptor 2 (Homo sapiens) (P25090 whole entry, looked up): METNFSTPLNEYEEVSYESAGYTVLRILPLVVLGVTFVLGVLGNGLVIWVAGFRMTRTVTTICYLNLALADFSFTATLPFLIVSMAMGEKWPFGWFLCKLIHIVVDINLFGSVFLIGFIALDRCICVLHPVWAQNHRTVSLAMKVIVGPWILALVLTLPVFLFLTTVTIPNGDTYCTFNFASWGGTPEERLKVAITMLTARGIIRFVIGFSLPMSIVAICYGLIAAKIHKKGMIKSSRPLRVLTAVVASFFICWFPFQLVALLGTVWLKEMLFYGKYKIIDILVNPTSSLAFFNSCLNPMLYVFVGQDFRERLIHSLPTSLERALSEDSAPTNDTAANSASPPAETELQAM

`CCCCCNC(=O)c1ccc2c(=O)[nH]c3c(C(=O)NCC4CCCO4)sc(=S)n3c2c1` (stereo unspecified) yielded a Ki above 40.3 µM. `Cc1ccc(NC(=O)C2CCCN2S(=O)(=O)c2cccc3cccnc23)cc1F` (stereo unspecified) had a Ki above 40.3 µM. For the compound `O=C(C1=C(O)C(=O)N(CCCN2CCOCC2)C1c1ccccn1)c1cc2ccccc2o1` (stereo unspecified), the IC50 is > 66.7 µM (inactive) and the Ki was above 40.3 µM. As for `CCCNC(=S)Nc1ccc(Nc2ccccc2)cc1`, the Ki was above 40.3 µM. As to `COc1cccc2cc(C(=O)C3=C(O)C(=O)N(Cc4ccco4)C3c3cccnc3)oc12` (stereo unspecified), the IC50 is > 66.7 µM (inactive) and the Ki was above 40.3 µM. In the case of `Cc1cccc(OCC(=O)Nc2cc(C)ccc2O)c1`, the Ki is above 40.3 µM. For the compound `COC(=O)C1=[N+]([O-])OC(C(=O)OC)C1c1c[nH]c2ccccc12` (stereo unspecified), the Ki is above 40.3 µM. Take `O=C1C(C23CC4CC(CC(C4)C2)C3)C(=O)N(c2ccccc2)N1c1ccccc1`: the IC50 is > 66.7 µM (inactive) and the Ki is above 40.3 µM.

Compound `COc1cccc2c1C(=O)c1c(O)c3c(c(O)c1C2=O)C[C@@](O)(C(C)=O)C[C@@H]3O[C@H]1C[C@H](N)[C@H](O)[C@H](C)O1` yielded a Ki of 15.2 µM.

As for `O=C1CCCC(O)=C1C(C#Cc1ccccc1)C1=C(O)CCCC1=O`, the IC50 is > 66.7 µM (inactive) and the Ki was above 40.3 µM. Take `CCc1nn2c(=O)cc(CSc3nc4sc5c(c4c(=O)n3C)CCCC5)nc2s1`: the Ki was above 40.3 µM. As for `CCCC(=O)Nc1cc(-c2cn3cccnc3n2)ccc1OC`, the Ki is 13.8 µM. Take `Cc1oc2cc(O)cc(O)c2c(=O)c1-c1ccc2c(c1)OCCCO2`: the Ki was above 40.3 µM. For the compound `O=C(C1=C(O)C(=O)N(Cc2ccccc2)C1c1ccco1)c1ccco1` (stereo unspecified), the IC50 is > 66.7 µM (inactive) and the Ki is above 40.3 µM. `CCOC(=O)c1cc(NC(=O)C2C3CCC(O3)C2C(=O)O)cc(C(=O)OCC)c1` (stereo unspecified) returned a Ki above 40.3 µM. For the compound `CCCCC1C(=O)N(c2ccccc2)N(c2ccccc2)C1=O`, the IC50 was > 66.7 µM (inactive) and the Ki was above 40.3 µM. `COc1cc(C2C(C(=O)c3ccc(C)o3)=C(O)C(=O)N2CCc2ccccc2)ccc1O` (stereo unspecified): the IC50 is > 66.7 µM (inactive) and the Ki is above 40.3 µM. For the compound `COc1ccc2nc(Nc3nc(C)c(C(C)=O)s3)sc2c1`, the Ki was above 40.3 µM. The same measure, in the same setting: the value for `CCN1C(=O)/C(=C2\SC(=S)N(CCCOC)C2=O)c2ccccc21` was above 40.3 µM. As for `CCOc1ccc(/C(O)=C2/C(=O)C(=O)N(c3nc(C)c(C)s3)C2c2ccco2)cc1` (stereo unspecified), the IC50 is > 66.7 µM (inactive) and the Ki is above 40.3 µM. On to `CCOc1cccc(/C(O)=C2/C(=O)C(=O)N(CCOC)C2c2ccc(C)o2)c1` (stereo unspecified), for which the IC50 was > 66.7 µM (inactive) and the Ki was above 40.3 µM. As for `COc1ccc(-c2nnc(Nc3nc4c(OC)cccc4s3)o2)c(OC)c1`, the Ki was above 40.3 µM. Take `COC(=O)c1[nH]c(C)c(/C(O)=C2\C(=O)C(=O)N(CCN3CCOCC3)C2c2cccnc2)c1C` (stereo unspecified): the IC50 was > 66.7 µM (inactive) and the Ki is above 40.3 µM.

`COc1ccc(-n2c(Cc3cccn3C)nnc2SCC(=O)Nc2ccc(Cl)cc2)cc1` had a Ki above 40.3 µM. As for `Cc1cc(N2C(=O)C(O)=C(C(=O)c3ccco3)C2c2cccnc2)no1` (stereo unspecified), the IC50 is > 66.7 µM (inactive) and the Ki was above 40.3 µM. As for `CCCOc1ccc2c(=O)c(N3C(=O)c4ccccc4C3=O)c(C)oc2c1`, the inhibitory constant (Ki) is above 40.3 µM. In turn, `O=C(Nc1ccc(Nc2ccccc2)cc1)c1ccc(Br)o1` returned a Ki above 40.3 µM.

`O=C(NCCCN1CCN(c2ccc(F)cc2)CC1)c1cccc(N2CCCC2=O)c1` gave a Ki above 40.3 µM. The same measure, in the same setting: in the case of `Cc1cccc(C2CC(c3ccc(Cl)cc3)Nc3nc(N)nn32)c1` (stereo unspecified) it was above 40.3 µM.

Take `COc1ccc(C2C(C(=O)c3ccco3)=C(O)C(=O)N2Cc2cccnc2)cc1OC` (stereo unspecified): the IC50 was > 66.7 µM (inactive) and the inhibition constant Ki was above 40.3 µM. In the same order, the values of `CSCCC1C(C#N)=C(N)Oc2n[nH]c(-c3cccs3)c21` (stereo unspecified) are > 66.7 µM (inactive) and above 40.3 µM. The compound `Clc1ccc(C2CC(c3cccs3)n3ncnc3N2)cc1Cl` (stereo unspecified) displayed a Ki above 40.3 µM. The compound `O=C(NC1CCCC1)c1sc(=S)n2c1[nH]c(=O)c1ccccc12` displayed a Ki above 40.3 µM. Consider `CCN(CCCc1ccccc1)CCCc1ccccc1`, for which the Ki was above 40.3 µM.

The compound `CC1Oc2ccccc2N(Cc2ccccc2Cl)C1=O` (stereo unspecified) returned a Ki above 40.3 µM. In turn, `COc1ccccc1NC(=O)CSc1nnc(Cn2nnc(-c3ccccc3)n2)n1-c1ccccc1` had a Ki above 40.3 µM. As to `Cc1ccc(C2C(C(=O)c3sc(C)nc3C)=C(O)C(=O)N2CCN2CCOCC2)o1` (stereo unspecified), the IC50 is > 66.7 µM (inactive) and the Ki was above 40.3 µM. For the compound `CCOc1ccccc1Oc1c(C)oc2cc(OC(=O)c3ccco3)ccc2c1=O`, the Ki was above 40.3 µM. Regarding `CCOc1cccc(/C(O)=C2/C(=O)C(=O)N(Cc3ccco3)C2c2ccncc2)c1` (stereo unspecified), the IC50 was > 66.7 µM (inactive) and the Ki was above 40.3 µM. Compound `COc1ccc(OC)c(NC(=O)C2C3CCC(C3=C(C)C)C2C(=O)O)c1` (stereo unspecified) yielded a Ki above 40.3 µM. Regarding `COc1cc(-n2nc(C)c3c2OC(N)=C(C#N)C3c2ccccc2)c(Cl)c(Br)c1O` (stereo unspecified), the IC50 is > 66.7 µM (inactive) and the Ki is above 40.3 µM.

In the case of `CCOC(=O)Cc1cc(=O)n2[nH]c(C)c(-c3ccccc3)c2n1`, the Ki was above 40.3 µM. On to `COc1cccc(OC)c1/C(O)=C(\C#N)c1nc2ccccc2[nH]1`, for which the IC50 was > 66.7 µM (inactive) and the inhibition constant (Ki) was above 40.3 µM. In turn, `CCC(C)(C(=O)NC1CCCC1)N(CC1CCCO1)C(=O)c1ccc2c(c1)OCO2` (stereo unspecified) showed a Ki above 40.3 µM.

`COc1ccc(-c2cn3cccnc3n2)cc1NC(=O)C1CCCC1` had a Ki above 40.3 µM. As for `Cc1ccc(C2/C(=C(/O)c3ccc(Br)cc3)C(=O)C(=O)N2Cc2ccco2)o1` (stereo unspecified), the IC50 is > 66.7 µM (inactive) and the Ki was above 40.3 µM. With `Cc1ccsc1C1C2=C(CC(C)(C)CC2=O)Nc2ncnn21` (stereo unspecified), the IC50 was > 66.7 µM (inactive) and the inhibition constant (Ki) was above 40.3 µM. Compound `O=c1c2c(nc3c(-c4ccc(Cl)cc4)c[nH]n13)CCCC2` displayed a Ki above 40.3 µM. For the compound `CCCc1cc(=O)n2[nH]c(C)c(-c3ccccc3)c2n1`, the inhibitory constant (Ki) was above 40.3 µM. With `O=C(C1=C(O)C(=O)N(Cc2ccccc2)C1c1cccnc1)c1ccco1` (stereo unspecified), the IC50 was > 66.7 µM (inactive) and the Ki is above 40.3 µM. Take `COc1ccc(-c2nc(-c3ccc(Br)o3)no2)cc1OC`: the Ki is above 40.3 µM. The same measure, in the same setting: in the case of `CCOC(=O)C1CCN(Cc2ccc(C(=O)OC)cc2)CC1` it was above 40.3 µM; in that of `O=C(NCCN1CCOCC1)NC1(C(F)(F)F)Oc2ccc(Cl)cc2O1` (stereo unspecified), above 40.3 µM. `CCCc1nc2ccccc2c2nc(N)nn12` displayed a Ki above 40.3 µM. Take `COC(=O)c1[nH]c(C)c(/C(O)=C2\C(=O)C(=O)N(CCN3CCOCC3)C2c2cccs2)c1C` (stereo unspecified): the IC50 was > 66.7 µM (inactive) and the Ki is above 40.3 µM.

In turn, `O=S(=O)(Nc1cccc2ncccc12)c1cccs1` came in with a Ki above 40.3 µM.

Turning to `CCOC(=O)c1c(-c2ccc(-c3ccccc3)cc2)csc1NC(=O)C1C2CCC(O2)C1C(=O)O` (stereo unspecified), the Ki is above 40.3 µM. For `COc1ccc(-c2c(C)oc3c(CN4CCN(CCO)CC4)c(O)ccc3c2=O)cc1OC`, the Ki was above 40.3 µM.

`Cc1ccc(C(=O)C2=C(O)C(=O)N(CCCn3ccnc3)C2c2ccc(OC(C)C)cc2)o1` (stereo unspecified): the IC50 was > 66.7 µM (inactive) and the Ki was above 40.3 µM. With `CC1CCN(S(=O)(=O)c2ccc3c(c2)oc(=O)n3CC(=O)NCc2ccc3c(c2)OCO3)CC1`, the Ki is above 40.3 µM. `C/C(=C1/SC(N2CCCC2)=NC1=O)c1ccc(Br)cc1`: the IC50 is > 66.7 µM (inactive) and the Ki is above 40.3 µM. The compound `COc1ccc(-c2nc(N3CCCC3)[nH]c(=O)c2C#N)cc1` came in with a Ki above 40.3 µM.

As for `CCN(CC)c1ccc(C=N/C(C#N)=C(\N)C#N)cc1`, the IC50 was > 66.7 µM (inactive) and the Ki was above 40.3 µM. `CSc1ccccc1NS(=O)(=O)c1ccccc1` had a Ki above 40.3 µM.

As to `COc1ccc(OC)c(C2/C(=C(/O)c3ccccc3)C(=O)C(=O)N2Cc2ccco2)c1` (stereo unspecified), the IC50 is > 66.7 µM (inactive) and the Ki is above 40.3 µM. `O=C(Nc1nnc(-c2ccccc2Cl)o1)c1ccc(S(=O)(=O)N2CCCCCC2)cc1` displayed a Ki above 40.3 µM. `Cc1ccc(/C(O)=C2\C(=O)C(=O)N(CC(C)O)C2c2ccc(N(C)C)cc2)cc1` (stereo unspecified): the IC50 is > 66.7 µM (inactive) and the Ki was above 40.3 µM. Turning to `O=C(C1=C(O)C(=O)N(CCOCCO)C1c1cccs1)c1cccs1` (stereo unspecified), the IC50 is > 66.7 µM (inactive) and the Ki was above 40.3 µM. In turn, `CCOC(=O)CSc1nnc(CNC(=O)c2cc(OCC)c(OCC)c(OCC)c2)n1C` returned a Ki of 6.7 µM. This lies in the single-digit micromolar range.

The compound `CC(C)OC(=O)c1nnn(-c2nonc2N)c1CN1CCc2ccccc2C1` registered a Ki above 40.3 µM. Take `COc1ccc(C2C(C(=O)c3ccco3)=C(O)C(=O)N2CCc2ccccc2)cc1OC` (stereo unspecified): the IC50 is > 66.7 µM (inactive) and the Ki is above 40.3 µM. In turn, `COc1ccc(-c2nc(-c3ccc(NC(=O)c4ccc(Br)o4)cc3)no2)cc1OC` had a Ki above 40.3 µM. Same read-out and setting: in the case of `CC(C)CN(CC(C)C)C(=O)CS(=O)(=O)Cc1ccccc1` it was above 40.3 µM. With `O=C(C1=C(O)C(=O)N(c2ncccn2)C1c1ccc(Cl)c(Cl)c1)c1ccco1` (stereo unspecified), the IC50 is > 66.7 µM (inactive) and the Ki was above 40.3 µM.

In the case of `COc1ccc(-c2cc(C(F)(F)F)nc(N3CCCCC3)n2)cc1OC`, the Ki is above 40.3 µM.

As for `O=C1N=c2ccccc2=C1c1sc(=S)n(CC2CCCO2)c1O` (stereo unspecified), the IC50 is > 66.7 µM (inactive) and the Ki is above 40.3 µM. Regarding `CCOc1ccccc1NC(=O)CSc1nccn1-c1ccccc1`, the Ki was above 40.3 µM. Still for that read-out and setting: the value for `COc1ccc(NC(=O)C2C3CCC(C3)C2C(=O)O)cc1OC` (stereo unspecified) was above 40.3 µM.

Consider `C=CCOc1ccc(C2C(C(=O)c3ccco3)=C(O)C(=O)N2Cc2cccnc2)cc1` (stereo unspecified), for which the IC50 is > 66.7 µM (inactive) and the Ki was above 40.3 µM. `COc1ccccc1Oc1c(C)oc2cc(OC(=O)c3ccco3)ccc2c1=O` displayed a Ki above 40.3 µM.
